Where two headings read alike, the source gives them in different places. Marks after values point to notes of the source that are not given here.
Key:
[1] = tested on: EDL muscles from normal C57Black/6 mice; experiment: DNA synthesis ([3H]-thymidine) in whole-muscle EDL culture, normal mice; type: cell-based; conditions: NO donor alone; whole mouse EDL-muscle cultures; FIG. 2
Protocol: The proposed model of satellite cell activation as a function of NO is supported by a study of the effect of two known NO donor compounds-ISDN and DPTA-on whole mouse EDL-muscle cultures (FIG. 2), which studies were performed using in vitro methods described below. Results are reported in dpm (“disintegrations per minute”) per amount of DNA (here μg). […] In all cases, each sample was assayed in duplicate for counts, and in triplicate for DNA content (micrograms), the latter according to a standard curve of 5 or more standard concentrations that was established with a regression line having r^2 in the linear regression analysis greater than 0.97 at each assay.
Extensor digitorum longus (EDL) muscles were dissected cleanly and carefully from normal C57Black/6 mice (8 weeks old) without stretching or trauma that could easily activate satellite cells. Each muscle was aligned radially in one well of a 6-well Flex II culture plate (Flexcell International, N.C., USA), and the tendons were pinned so the muscle was at resting length. […]
(§1) DNA was isolated from the tissues. DNA synthesis was assayed by scintillation counting in Ready Safe scintillation cocktail (Beckman), and the concentration of DNA in each sample was assayed using a fluorescence assay (calibrated against a standard curve). The data were calculated as DNA synthesis per microgram of DNA in each sample.

[2] = tested on: EDL muscles from old (12-month-old) normal mice; experiment: DNA synthesis in whole-muscle EDL culture from 12-month-old mice; type: cell-based, mouse; conditions: MyoNovin higher dose of 2, L-NAME both doses (very high), FIG. 19
Protocol: […] Each muscle was aligned radially in one well of a 6-well Flex II culture plate (Flexcell International, N.C., USA), and the tendons were pinned so the muscle was at resting length. The muscles were incubated in growth medium ([…], DMEM, containing 15% v/v horse serum (HyClone Laboratories Inc.) and 2% v/v chick embryo extract (ICN Biomedicals) at 37° C. in 5% CO2). Muscles in the wells were treated with or without an NO donor. [^3H]-Thymidine was added to the medium at the beginning of treatment, and cultures were maintained for 24 hours to allow incorporation of the isotope into new DNA. At the end of 24 hours, muscles were removed from wells, tendons were trimmed away, and the muscles were frozen at −20° C. for future analysis.
as §1
Data from an experiment on EDL muscles in culture, isolated from old (12-month-old) normal […] mice were conducted using the method described above for methocarbomol and ISDN.
In this experiment, muscles were treated with MyoNovin (2 doses) or the NOS inhibitor, L-NAME (2 doses).

mdx dystrophic mice = experiment: DNA synthesis in back muscle after topical application, mdx mice; type: in vivo, mouse; conditions: transdermal, FIG. 18
From the text: Ointments were applied according to the following procedure. • 1. Animals were anesthetized with isoflurane and the mid-dorsal skin (on the back) was shaved, washed with soap and water, and air dried. • 2. The ointment was applied to the sterile pad on an adhesive bandage. Control bandages were coated with the ointment base only. After topical application in which the bandages were applied to the shaved back region, bandages were wrapped with medical adhesive. The animals had the Elizabethan collar fitted while under anesthesia, to prevent their later chewing at the adhesive tape. Eyes were irrigated regularly, as animals were unable to groom well while wearing the cone. • 3. Animals were treated for a total of 24 hours. There were no apparent effects of treatment on behaviour. • 4. Two hours before euthanasia, the mice were injected with 2 μCi per gram body weight of tritiated-thymidine (intra peritoneal) to label DNA synthesis. • 5. At 24 hours from the start of ointment application, animals were euthanized using cervical dislocation under anesthesia provided by pentobarbital injection. […] DNA synthesis was assayed by scintillation counting in Ready Safe scintillation cocktail (Beckman), and the concentration of DNA in each sample was assayed using a fluorescence assay (calibrated against a standard curve). The data were calculated as DNA synthesis per microgram of DNA in each sample. […]

[3] = tested on: back muscle tissue homogenate; experiment: EPR assay of NO release, back muscle homogenate; type: biochemical, mouse
Protocol: (§2) In the experiment liver and back muscle tissue taken from C57Black/6 mice were homogenized in ice-cold sucrose buffer. A small amount of MyoNovin was dissolved in dimethylsulfoxide and added to the tissue homogenates. An NO spin-trap molecule N-Methyl-D-glucamine dithiocarbamate (MGD) was added to the homogenate-MyoNovin mixture as a stable iron complex [10 μl of 50 mM MGD in saline; (containing MGD at 50 mM and Fe^2+ at 10 mM)] in order to trap any NO released from the tissue homogenate. The entire homogenate mixture plus NO spin-trap solution was then incubated for 1 hour at 37° C. After incubation, a sample of homogenate (16 μl) was loaded into a quartz capillary tube for determination of the EPR spectrum. EPR spectra were then obtained using a Bruker EMXEPR spectrometer (Bruker, Co., Billerica, Mass.) at room temperature (25° C.). The instrument settings were: 9.25 GHz microwave frequency; 100 kHz modulation frequency; 20 mW microwave power, 4 G modulation amplitude, 40 ms time constant, 42 s scan time, and 100 Gauss scan range, and 3410 G center field.
(§3) FIG. 20 is a compilation of the spectra obtained. Curve A represents a blank control sample (the homogenate and NO spin-trap for the EPR assay, without the addition of MyoNovin). Curve B is an NO standard (homogenate and NO spin-trap for the EPR assay, bubbled with NO gas). […]

liver tissue homogenate = experiment: EPR assay of NO release, liver homogenate; type: biochemical, mouse; conditions: MGD spin-trap, 1 hour at 37° C., FIG. 20
Protocol: as §2, §3

[4] = 0.25% carisoprodol, 1% DETA, topical, FIG. 8
[5] = 1% methocarbamol, 0.2% ISDN ointment, topical 24 h, FIG. 7
[6] = back muscle, topical ointment on back, 24 h, DNA synthesis per microgram of DNA
[7] = gut (positive control tissue), topical ointment on back, 24 h, per microgram of DNA
[8] = heart (negative control tissue), topical ointment on back, 24 h, per microgram of DNA
[9] = quadriceps, topical ointment on back, 24 h, DNA synthesis per microgram of DNA

For `NCCN(CCN)/[N+]([O-])=N/O` [DETA, diethylenetriamine-NONOate], which “DNA synthesis in back muscle (in words)” value (normal C57Black/6 mice; [4]) is on record?
Its value is “induce increased DNA synthesis”.

What about the “DNA synthesis in quadriceps (in words)” value (normal C57Black/6 mice; [4]) of the same molecule?
The value was “induce increased DNA synthesis”.

`NCCCN(CCCN)/[N+]([O-])=N/O` [DPTA, dipropylenetriamine-NONOate] was tested. Which “DNA synthesis (3H-thymidine incorporation) compared to a control muscle” value [1] did it give?
Its value is “stimulate an increase in DNA synthesis”.

How did the “DNA synthesis (3H-thymidine incorporation) compared to a control muscle” value [1] turn out when `O=[N+]([O-])O[C@H]1CO[C@H]2[C@@H]1OC[C@H]2O[N+](=O)[O-]` [ISDN, isosorbide dinitrate] was run?
Its value is “stimulate an increase in DNA synthesis”.

And the “DNA synthesis in back muscle (in words)” value (normal C57Black/6 mice; [5])?
Its value is “increase in DNA synthesis”.

With `COC(=O)[C@@H](N)CCCNC(=N)N[N+](=O)[O-]` [L-NAME, L-nitro-arginine methyl ester] as the molecule, how does the “DNA synthesis in EDL muscles in culture” value [2] read?
Its value is “decreased DNA synthesis”.

How did the “DNA synthesis in back muscle (in words)” value (normal C57Black/6 mice; [5]) turn out when `COc1ccccc1OCC(O)COC(N)=O` (stereo not shown) [MC, methocarbamol] was run?
The value was “increase in DNA synthesis”.

And the “DNA synthesis, Back Muscle, Mean” value (normal C57Black/6 mice; back muscle, mean of experiments, outliers (*) excluded, MC/ISDN mean covers samples (a) and (b))?
Its value is 427.5.

What about the “DNA synthesis, Back Muscle, Experiment 1” value (normal C57Black/6 mice; [6]) of the same molecule?
The value was 430.5.

What about the “DNA synthesis, Back Muscle, Experiment 2” value (normal C57Black/6 mice; [6]) of the same molecule?
Its value is 734*.

And the “DNA synthesis, Back Muscle, Experiment 3” value (normal C57Black/6 mice; [6])?
The value was 422.7.

And the “DNA synthesis, Back Muscle, Experiment 4” value (normal C57Black/6 mice; [6])?
Its value is 429.43.

What about the “DNA synthesis, Gut, Experiment 2” value (normal C57Black/6 mice; [7]) of the same molecule?
The value was 123.

And the “DNA synthesis, Gut, Experiment 3” value (normal C57Black/6 mice; [7])?
Its value is 239.2.

And the “DNA synthesis, Gut, Experiment 4” value (normal C57Black/6 mice; [7])?
Its value is 225.9.

And the “DNA synthesis, Gut, Mean” value (normal C57Black/6 mice; gut, mean of experiments, MC/ISDN mean covers samples (a) and (b))?
Its value is 196.0.

And the “DNA synthesis, Heart, Experiment 2” value (normal C57Black/6 mice; [8])?
Its value is 186.

And the “DNA synthesis, Heart, Experiment 3” value (normal C57Black/6 mice; [8])?
The value was 221.3.

What about the “DNA synthesis, Heart, Experiment 4” value (normal C57Black/6 mice; [8]) of the same molecule?
The value was 240.76.

And the “DNA synthesis, Heart, Mean” value (normal C57Black/6 mice; heart, mean of experiments, MC/ISDN mean covers samples (a) and (b))?
The value was 216.0.

What about the “DNA synthesis, Quadriceps, Mean” value (normal C57Black/6 mice; quadriceps, mean of experiments, MC/ISDN mean covers samples (a) and (b)) of the same molecule?
Its value is 456.3.

And the “DNA synthesis, Quadriceps, Experiment 1” value (normal C57Black/6 mice; [9])?
Its value is 507.

What about the “DNA synthesis, Quadriceps, Experiment 2” value (normal C57Black/6 mice; [9]) of the same molecule?
Its value is 573.

What about the “DNA synthesis, Quadriceps, Experiment 3” value (normal C57Black/6 mice; [9]) of the same molecule?
The value was 404.1.

And the “DNA synthesis, Quadriceps, Experiment 4” value (normal C57Black/6 mice; [9])?
The value was 340.9.

Which “DNA synthesis in back muscle compared to the control” value (mdx dystrophic mice) does the source give for `COc1ccccc1OCC(CO[N+](=O)[O-])O[N+](=O)[O-]` (stereo not shown) [MyoNovin, 1,2-di-O-nitro-3(o-methoxyphenoxy)-propanediol] here?
Its value is “decreased”.

And the “NO release (EPR)” value ([3]; back muscle homogenate, MGD spin-trap, 1 hour at 37° C., FIG. 20)?
The value was “strong release of NO”.

What about the “time-course of NO release” value ([3]; back muscle homogenates, FIG. 21) of the same molecule?
The value was “more than two hours”.

And the “side effects to animal behaviour, appearance or weight” value (normal C57Black/6 mice; transdermal MyoNovin, 24 h, normal mice)?
The value was “no apparent side effects”.

And the “increase in muscle cell proliferation (DNA synthesis)” value (normal C57Black/6 mice; transdermal, over a 24-hour period, normal mice, FIG. 17)?
The value was 37-39%.

What about the “DNA synthesis in EDL muscles in culture” value [2] of the same molecule?
The value was “increased DNA synthesis”.

And the “NO release (EPR)” value (liver tissue homogenate)?
The value was “strong release of NO”.

With `CCCC(C)(COC(N)=O)COC(=O)NC(C)C` (stereo not shown) [carisoprodol] as the molecule, how does the “DNA synthesis in back muscle (in words)” value (normal C57Black/6 mice; [4]) read?
The value was “induce increased DNA synthesis”.

What about the “DNA synthesis in quadriceps (in words)” value (normal C57Black/6 mice; [4]) of the same molecule?
The value was “induce increased DNA synthesis”.

From patent publication US8106080B2, “Compositions and methods for enhancing nitric oxide delivery” (priority 2006, dated 2012)
